Legend:
Format in all cases: biochemical
Details in all cases: pH 8.0, 37° C., mean value of 2 experiments
[1] = molecular target: Serratia sp. strain MK1 phospholipase A1 (PLA1), wild-type (naturally occurring; gene SEQ ID NO: 1) (Serratia sp. MK1, UniProt Q9X9D8); test: kinetic parameters of phospholipase A1 (pH-stat titration of fatty acid released from phosphatidylcholine)
Experimental: (§1) Catalytic activity of phospholipase A1 was determined using pH-stat titration method. The amount of released fatty acid from enzyme reaction was measured at 37° C. in a pH-stat (Radiometer Copenhagen, France) equipped with autotiter and autoburette. To a substrate solution containing 3.4 mM phosphatidylcholine, 10 mM CaCl2 and 2.6 mM deoxycholic acid, sonicated for emulsification, was added phospholipase A1 enzyme solution and then the amount of released fatty acid was measured. One unit is defined as the amount of enzyme that releases 1μ mole of free fatty acid per minute from phosphatidylcholine at 37° C. and pH 8.0 in a pH-stat.

[2] = molecular target: Serratia sp. strain MK1 phospholipase A1 mutant TA3 (substitutions at positions 32, 39, 65, 105, 153, 158 and 303 with P, A, L, V, I, I and E); SEQ ID NO: 6; DNA (Serratia sp. MK1, UniProt Q9X9D8, E105V/K303E/M153I/Q32P/S158I/S65L/T39A); test: kinetic parameters of phospholipase A1 mutant TA3 (pH-stat titration of fatty acid released from phosphatidylcholine)
From the text: (§2) The amino acid sequence of TA3 was deduced from the nucleotide sequence of TA3 comprising thermostable phospholipase A1 mutant gene and set forth in SEQ ID NO: 6, and the amino acid sequence of TA13 was deduced from the nucleotide sequence of TA13 and set forth in SEQ ID NO: 7. When the amino acid sequences of thermostable phopholipase mutants, TA3 and TA13 were compared with that of naturally occurring phospholipase A1, TA3 and TA13 were identified as novel proteins with 7 and 6 amino acid substitutions, respectively. Phospholipase TA3 has been identified to have amino acid substitutions at positions of 32, 39, 65, 105, 153, 158 and 303 with P, A, L, V, I, I, and E and phospholipase TA13 has been identified to have amino acid substitutions at positions of 36, 102, 154, 158, 281 and 291 with Q, N, K, W, Q and N, respectively.
as §1

[3] = molecular target: Serratia sp. strain MK1 phospholipase A1 mutant TA13 (substitutions at positions 36, 102, 154, 158, 281 and 291 with Q, N, K, W, Q and N); SEQ ID NO: 7; DNA SEQ (Serratia sp. MK1, UniProt Q9X9D8, E35Q/K290N/L157W/L280Q/M153K/S101N); test: kinetic parameters of phospholipase A1 mutant TA13 (pH-stat titration of fatty acid released from phosphatidylcholine)
From the text: as §2, §1

Chain of Serratia sp. strain MK1 phospholipase A1 mutant TA3 (substitutions at positions 32, 39, 65, 105, 153, 158 and 303 with P, A, L, V, I, I and E); SEQ ID NO: 6; DNA (Q9X9D8 entry or part of it Q32P/T39A/S65L/E105V/M153I/S158I/K303E): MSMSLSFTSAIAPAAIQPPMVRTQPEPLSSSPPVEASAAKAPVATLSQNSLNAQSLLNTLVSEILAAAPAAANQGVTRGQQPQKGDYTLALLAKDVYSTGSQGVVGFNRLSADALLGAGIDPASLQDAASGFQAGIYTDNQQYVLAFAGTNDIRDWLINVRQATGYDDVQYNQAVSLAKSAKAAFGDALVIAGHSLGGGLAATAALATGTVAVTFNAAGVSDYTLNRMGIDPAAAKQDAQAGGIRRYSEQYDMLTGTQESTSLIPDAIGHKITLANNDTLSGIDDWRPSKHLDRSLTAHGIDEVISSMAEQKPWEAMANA
Chain of Serratia sp. strain MK1 phospholipase A1 mutant TA13 (substitutions at positions 36, 102, 154, 158, 281 and 291 with Q, N, K, W, Q and N); SEQ ID NO: 7; DNA SEQ (Q9X9D8 entry or part of it E35Q/S101N/M153K/L157W/L280Q/K290N): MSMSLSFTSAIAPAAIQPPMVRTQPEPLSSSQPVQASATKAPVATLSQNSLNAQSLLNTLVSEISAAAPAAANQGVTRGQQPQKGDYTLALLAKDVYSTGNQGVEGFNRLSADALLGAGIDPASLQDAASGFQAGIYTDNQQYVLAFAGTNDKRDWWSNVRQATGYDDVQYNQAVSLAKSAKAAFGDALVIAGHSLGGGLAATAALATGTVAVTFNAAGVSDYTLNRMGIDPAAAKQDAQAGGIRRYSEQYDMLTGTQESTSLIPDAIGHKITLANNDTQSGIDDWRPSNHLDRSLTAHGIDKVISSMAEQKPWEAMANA
Chain of Serratia sp. strain MK1 phospholipase A1 (PLA1), wild-type (naturally occurring; gene SEQ ID NO: 1) (Q9X9D8 entry or part of it): as the sequence (Q9X9D8 entry or part of it E35Q/S101N/M153K/L157W/L280Q/K290N) above, with Q35E, N101S, K153M, W157L, Q280L, N290K counted along it

Work on phosphatidylcholine yielded a Kcat [1] of 11.23 S^−1, a Kcat/Km [1] of 0.093 S^−1 μM and a Km [1] of 114 µM. It also gave a Kcat [2] of 10.92 S^−1, a Kcat/Km [2] of 0.104 S^−1 μM and a Km [2] of 105 µM. It also gave a Kcat [3] of 13.67 S^−1, a Kcat/Km [3] of 0.114 S^−1 μM and a Km [3] of 120 µM.

Source: US6610524B2, “Thermostable phospholipase A1 mutants and a process for preparing the same” (priority 2000, dated 2003)
